# In US9000029B2, “Proline sulfonamide derivatives as orexin receptor antagonists” (Actelion Pharmaceuticals Ltd., priority 2010, dated 2015):
# Experiments:
# Assay type in all cases: in vivo, rat
# Wistar Rats [1] = assay: Social stress-induced hyperthermia and tachycardia; details: 100 mg/kg orally two hours before one hour social interaction stress
# Source text: 3) Effects on Social Stress-Induced Hyperthermia and Tachycardia
# Exposure to both physiological and psychological stress in mammals leads to an elevation of core body temperature and heart rate referred to as stress-induced hyperthermia (SIH) and stress-induced tachycardia (SIT).
# The SIH/SIT response can be observed in humans equally well as in rodents providing excellent animal to human translational possibilities.
# 12 male Wistar rats were implanted intraperitoneally with transmitters that allowed the simultaneous recording of body temperature (in degrees Celsius) [FIG. 2 A)] and heart rate (in beats per minute) [FIG. 2 B)] via external receivers. Rats were treated orally with 100 mg/kg of compound of example 26 two hours before exposure to an one hour-lasting social interaction stress. Columns 1 and 2 show the effect on body temperature [FIG. 2 A)], respectively heart rate [FIG. 2 B)], after vehicle (1) or drug (2) treatment without exposure to stress; columns 3 and 4 show the effect with exposure to stress after vehicle (3) or drug (4) treatment.
# Wistar Rats [2] = assay: Sedative effects: EEG, EMG and behavioural indices of alertness recorded by radiotelemetry; details: 100 mg/kg po; effects analyzed over 6 hours; compared to vehicle controls
# Experimental: II. Biological Assays 1) Sedative Effects: EEG, EMG and Behavioural Indices of Alertness Recorded by Radiotelemetry In Vivo in Wistar Rats.
# Electroencephalography (EEG) and Electromyography (EMG) signals were measured by telemetry using TL11M2-F20-EET miniature radiotelemetric implants (Data Science Int.) with two pairs of differential leads.
# Surgical implantation was performed under general anesthesia with Ketamin/Xylazin, for cranial placement of one differential pair of EEG electrodes and one pair of EMG leads inserted in either side of the muscles of the neck. After surgery, rats recovered in a thermoregulated chamber and received analgesic treatment with subcutaneous buprenorphine twice a day for 2 d. They were then housed individually and allowed to recover for a minimum of 2 weeks. Thereafter, rats—in their home cage—were placed in a ventilated sound-attenuating box, on a 12-h light/12-h dark cycle, for acclimatization before continuous EEG/EMG recordings started. The telemetric technology that we used in this study allows accurate and stress-free acquisition of biosignals in rats placed in their familiar home cage environment, with no recording leads restricting their movements. Variables analyzed included four different stages of vigilance and sleep, spontaneous activity in the home cage and body temperature. Sleep and wake stages were evaluated using a rodent scoring software (Somnologica Science) directly processing electrical biosignals on 10 s contiguous epochs. The scoring is based on frequency estimation for EEG and amplitude discrimination for EMG and locomotor activity. Using these measurements, the software determines the probability that all components within each epoch best represent active waking (AW), quiet waking (QW), non-REM-sleep (NREM) or REM-sleep (REM). The percentage of total time spent in AW, QW, NREM- and REM-sleep was calculated per 12 h light or dark period. The latency to the onset of the first significant NREM- and REM-sleep episodes and the frequency and duration of those episodes were also calculated. AW, QW, NREM- and REM-sleep, home cage activity and body temperature were measured at baseline for at least one total circadian cycle (12 h-night, 12 h-day) before a test compound was administered. […] All variables were subsequently recorded for 12 h following administration of the orexin receptor antagonist.
# The compound of Example 26 has been tested in this assay (oral dosage: 100 mg/kg po; effects analyzed over 6 hours): Results are: −26% on active wake, −51% on home cage activity, +28% on NREM sleep, +69% on REM sleep; when compared to vehicle controls.
# Sprague Dawley rats = assay: Morphine-induced locomotor sensitization; details: 100 mg/kg orally two hours before morphine 10 mg/kg i.p.
# Source text: 2) Effects on Morphine-Induced Locomotor Sensitization
# Repeated administration of psychostimulants or opiates across various species including rodents causes the development of “reverse tolerance” known as sensitization. The term sensitization refers to an increase in a response (here locomotion) after the repeated occurrence of the stimulus (drug administration) that promoted the aforementioned response. The increased sensitivity to the locomotor stimulating effect of such drugs (behavioural sensitization) is believed to be relevant to the psychopathology, neurotoxicity, addiction and to the craving that develop in humans abusing psychostimulants or opiates [Vanderschuren L J M J et al., in Self D W, Staley J K (eds.) “Behavioral Neuroscience of Drug Addiction”, Current Topics in Behavioral Neurosciences 3 (2009), 179-195].
# Sensitization to the locomotor effects of drugs of abuse is believed to reflect sensitization to the rewarding effects of these agents. For instance, previous drug experience has been reported to increase the probability that animals will self-administer the drug later on. […]
# 16 male Sprague Dawley rats were injected with morphine (10 mg/kg i.p.) and placed immediately afterwards in an open field arena for 45 min. Total distance moved (in cm) was recorded via video-tracking. […]
structure (smiles),measurement,setting,value
"COc1ccc(S(=O)(=O)N2CCC[C@H]2C(=O)Nc2cc(C)cc(C)c2)cc1 [Example 26, (S)-1-(4-Methoxy-benzenesulfonyl)-pyrrolidine-2-carboxylic acid (3,5-dimethyl-phenyl)-amide]",social stress-induced hyperthermia,Wistar Rats [1],significantly attenuated
same,social stress-induced tachycardia,Wistar Rats [1],significantly attenuated
same,effect on NREM sleep,Wistar Rats [2],+28%
same,effect on REM sleep,Wistar Rats [2],+69%
same,effect on active wake,Wistar Rats [2],−26%
same,effect on home cage activity,Wistar Rats [2],−51%
same,locomotor sensitization in response to the 5th injection of morphine,Sprague Dawley rats,completely abolished
